Experimental data reported in patent publication US11230540B2, “Substituted triazole derivatives and uses thereof” (Bayer Pharma Aktiengesellschaft, priority 2017, dated 2022).
Counter-ions that a name gives are not always drawn.

Legend:
[1] = biological target: T1, human V1a receptor (Homo sapiens, UniProt P37288); assay: Cellular in vitro assay for vasopressin receptor activity, V1a receptor cell line (aequorin luminescence); format: cell-based; settings: for IC50: CHO cell line transfected with human V1a receptor, [Arg8]-vasopressin at EC50 concentration, read-out: IC50 hV1a; for ratio IC50 hV2/hV1a: selectivity ratio of the IC50 values hV2/hV1a
T1 construct: expressed in transfected cells; host or cells: CHO K1 (Chinese hamster ovary), also stably transfected with a modified aequorin
T1 sequence (P37288 whole entry): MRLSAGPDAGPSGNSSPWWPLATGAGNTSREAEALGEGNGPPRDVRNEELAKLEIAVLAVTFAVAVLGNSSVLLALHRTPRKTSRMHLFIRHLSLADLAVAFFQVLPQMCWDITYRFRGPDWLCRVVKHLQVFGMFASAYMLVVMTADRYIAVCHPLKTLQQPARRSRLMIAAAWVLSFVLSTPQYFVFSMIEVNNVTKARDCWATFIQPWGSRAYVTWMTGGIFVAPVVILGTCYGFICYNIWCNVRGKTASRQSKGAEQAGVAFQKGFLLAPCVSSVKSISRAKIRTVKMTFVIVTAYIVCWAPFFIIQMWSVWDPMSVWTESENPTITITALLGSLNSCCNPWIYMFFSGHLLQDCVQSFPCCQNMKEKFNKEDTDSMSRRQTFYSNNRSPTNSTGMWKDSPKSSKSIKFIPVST
Protocol: (§1) B-1. Cellular In Vitro Assay for Determining Vasopressin Receptor Activity
(§2) The identification of agonists and antagonists of the V1a and V2 vasopressin receptors from humans, rats and dogs as well as the quantification of the activity of the compounds of the invention is carried out using recombinant cell lines. These cell lines originally derive from a hamster's ovary epithelial cell (Chinese Hamster Ovary, CHO K1, ATCC: American Type Culture Collection, Manassas, Va. 20108, USA). The test cell lines constitutively express the human, rat or dog V1a or V2 receptors. In case of the […] V1a receptors, cells are also stably transfected with a modified form of the calcium-sensitive photoproteins aequorin (human and rat V1a) or obelin (dog V1a), which, after reconstitution with the cofactor coelenterazine, emit light when there are increases in free calcium concentrations [Rizzuto R, Simpson A W, Brini M, Pozzan T, Nature 358, 325-327 (1992); Illarionov B A, Bondar V S, Illarionova V A, Vysotski E S, Gene 153 (2), 273-274 (1995)]. The resulting vasopressin receptor cells react to stimulation of the recombinantly expressed V1a receptors by intracellular release of calcium ions, which can be quantified by the resulting photoprotein luminescence. The Gs-coupled V2 receptors are stably transfected into cell lines expressing the gene for firefly luciferase under control of a CRE-responsible promoter. Activation of V2 receptors induces the activation of the CRE-responsive promoter via cAMP increase, thereby inducing the expression of firefly luciferase. The light emitted by photoproteins of V1a cell lines as well as the light emitted by firefly luciferase of V2 cell lines corresponds to the activation or inhibition of the respective vasopressin receptor. The bioluminescence of the cell lines is detected using a suitable luminometer [Milligan G, Marshall F, Rees S, Trends in Pharmacological Sciences 17, 235-237 (1996)].
Vasopressin V1a Receptor Cell Lines:
On the day before the assay, the cells are plated out in culture medium (DMEM/F12, 2% FCS, 2 mM glutamine, 10 mM HEPES, 5 μg/ml coelenterazine) in 384-well microtiter plates and kept in a cell incubator (96% humidity, 5% v/v CO2, 37° C.). On the day of the assay, test compounds in various concentrations are placed for 10 minutes in the wells of the microtiter plate before the agonist [Arg^8]-vasopressin at EC50 concentration is added. The resulting light signal is measured immediately in a luminometer.
(§3) Table 1A below lists individual IC50 values for the compounds of the invention (including racemic mixtures as well as separated enantiomers) that were obtained from cell lines transfected with the human V1a or V2 receptor: […]

[2] = biological target: T2, human V2 receptor (Homo sapiens, UniProt P30518); assay: Cellular in vitro assay for vasopressin receptor activity, V2 receptor cell line (CRE-luciferase); format: cell-based; settings: CHO cell line transfected with human V2 receptor; [Arg8]-vasopressin at EC50 concentration; read-out: IC50 hV2
T2 construct: expressed in transfected cells; host or cells: CHO K1 (Chinese hamster ovary) expressing firefly luciferase under a CRE-responsive promoter
T2 sequence (P30518 whole entry): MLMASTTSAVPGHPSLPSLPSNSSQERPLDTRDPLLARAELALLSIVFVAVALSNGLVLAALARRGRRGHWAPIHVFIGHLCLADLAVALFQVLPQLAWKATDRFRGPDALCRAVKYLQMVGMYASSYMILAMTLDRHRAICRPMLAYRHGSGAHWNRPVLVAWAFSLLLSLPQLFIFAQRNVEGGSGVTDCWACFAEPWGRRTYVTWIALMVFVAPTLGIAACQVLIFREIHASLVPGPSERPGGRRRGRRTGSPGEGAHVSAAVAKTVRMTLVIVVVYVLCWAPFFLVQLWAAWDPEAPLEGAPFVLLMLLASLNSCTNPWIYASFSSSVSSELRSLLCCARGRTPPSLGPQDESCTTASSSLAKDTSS
Protocol: as §1, §2
Vasopressin V2 Receptor Cell Lines:
On the day before the assay, the cells are plated out in culture medium (DMEM/F12, 2% FCS, 2 mM glutamine, 10 mM HEPES) in 384-well microtiter plates and kept in a cell incubator (96% humidity, 5% v/v CO2, 37° C.). On the day of the assay, test compounds in various concentrations and the agonist [Arg^8]-vasopressin at EC50 concentration are added together to the wells, and plates are incubated for 3 hours in a cell incubator. Upon addition of the cell lysis reagent Triton™ and the substrate luciferin, luminescence of firefly luciferase is measured in a luminometer.
as §3

IC50 [1] [nM] | ratio IC50 hV2/hV1a [1] | IC50 [2] [nM] | Compound
19.5 | 32.6 | 635 | CC(C)(C)NC(=O)c1nc(Cn2nc(-c3ccc(Cl)cc3)n(C[C@H](O)C(F)(F)F)c2=O)nn1-c1ncccc1OC(F)(F)F [Example 29, N-tert-Butyl-3-({3-(4-chlorophenyl)-5-oxo-4-[(2S)-3,3,3-trifluoro-2-hydroxypropyl]-4,5-dihydro-1H-1,2,4-triazol-1-yl}methyl)-1-[3-(trifluoromethoxy)pyridin-2-yl]-1H-1,2,4-triazole-5-carboxamide]
1.32 | 7.4 | 9.77 | O=C(NC1CC1)c1nc(Cn2nc(-c3ccc(Cl)cc3)n(C[C@H](O)C(F)(F)F)c2=O)nn1-c1ccccc1Cl [Example 33, 1-(2-Chlorophenyl)-3-({3-(4-chlorophenyl)-5-oxo-4-[(2S)-3,3,3-trifluoro-2-hydroxypropyl]-4,5-dihydro-1H-1,2,4-triazol-1-yl}methyl)-N-cyclopropyl-1H-1,2,4-triazole-5-carboxamide]
34.6 | 0.2 | 6.95 | CNC(=O)c1nc(Cn2nc(-c3ccc(Cl)cc3)n(C[C@H](O)C(F)(F)F)c2=O)nn1-c1cccc(Cl)c1 [Example 34, 1-(3-Chlorophenyl)-3-({3-(4-chlorophenyl)-5-oxo-4-[(2S)-3,3,3-trifluoro-2-hydroxypropyl]-4,5-dihydro-1H-1,2,4-triazol-1-yl}methyl)-N-methyl-1H-1,2,4-triazole-5-carboxamide]
4.92 | 0.7 | 3.64 | CN(C)C(=O)c1nc(Cn2nc(-c3ccc(Cl)cc3)n(C[C@H](O)C(F)(F)F)c2=O)nn1-c1cccc(Cl)c1 [Example 35, 1-(3-Chlorophenyl)-3-({3-(4-chlorophenyl)-5-oxo-4-[(2S)-3,3,3-trifluoro-2-hydroxypropyl]-4,5-dihydro-1H-1,2,4-triazol-1-yl}methyl)-N,N-dimethyl-1H-1,2,4-triazole-5-carboxamide]
38.6 | 0.6 | 23.4 | COCCNC(=O)c1nc(Cn2nc(-c3ccc(Cl)cc3)n(C[C@H](O)C(F)(F)F)c2=O)nn1-c1cccc(F)c1 [Example 37, 3-({3-(4-Chlorophenyl)-5-oxo-4-[(2S)-3,3,3-trifluoro-2-hydroxypropyl]-4,5-dihydro-1H-1,2,4-triazol-1-yl}methyl)-1-(3-fluorophenyl)-N-(2-methoxyethyl)-1H-1,2,4-triazole-5-carboxamide]
9.66 | 1.2 | 11.4 | O=C(NCC(F)(F)F)c1nc(Cn2nc(-c3ccc(Cl)cc3)n(C[C@H](O)C(F)(F)F)c2=O)nn1-c1cccc(F)c1 [Example 38, 3-({3-(4-Chlorophenyl)-5-oxo-4-[(2S)-3,3,3-trifluoro-2-hydroxypropyl]-4,5-dihydro-1H-1,2,4-triazol-1-yl}methyl)-1-(3-fluorophenyl)-N-(2,2,2-trifluoroethyl)-1H-1,2,4-triazole-5-carboxamide]
47 | 0.6 | 28.1 | O=C(NC1CC1)c1nc(Cn2nc(-c3ccc(Cl)cc3)n(C[C@H](O)C(F)(F)F)c2=O)nn1-c1cccc(F)c1 [Example 39, 3-({3-(4-Chlorophenyl)-5-oxo-4-[(2S)-3,3,3-trifluoro-2-hydroxypropyl]-4,5-dihydro-1H-1,2,4-triazol-1-yl}methyl)-N-cyclopropyl-1-(3-fluorophenyl)-1H-1,2,4-triazole-5-carboxamide]
1.12 | 7.4 | 8.29 | CNC(=O)c1nc(Cn2nc(-c3ccc(Cl)cc3)n(C[C@H](O)C(F)(F)F)c2=O)nn1-c1ccccc1OC [Example 42, 3-({3-(4-Chlorophenyl)-5-oxo-4-[(2S)-3,3,3-trifluoro-2-hydroxypropyl]-4,5-dihydro-1H-1,2,4-triazol-1-yl}methyl)-1-(2-methoxyphenyl)-N-methyl-1H-1,2,4-triazole-5-carboxamide]
2.07 | 8.1 | 16.7 | CNC(=O)c1nc(Cn2nc(-c3ccc(Cl)cc3)n(C[C@H](O)C(F)(F)F)c2=O)nn1-c1ccccc1Cl [Example 43, 1-(2-Chlorophenyl)-3-({3-(4-chlorophenyl)-5-oxo-4-[(2S)-3,3,3-trifluoro-2-hydroxypropyl]-4,5-dihydro-1H-1,2,4-triazol-1-yl}methyl)-N-methyl-1H-1,2,4-triazole-5-carboxamide]

Second part, the compound before the results:

Compound | IC50 [1] [nM] | ratio IC50 hV2/hV1a [1] | IC50 [2] [nM]
O=C(c1nc(Cn2nc(-c3ccc(Cl)cc3)n(C[C@H](O)C(F)(F)F)c2=O)nn1-c1ccccc1Cl)N1CCOCC1 [Example 30, 5-(4-Chlorophenyl)-2-{[1-(2-chlorophenyl)-5-(morpholin-4-ylcarbonyl)-1H-1,2,4-triazol-3-yl]methyl}-4-[(2S)-3,3,3-trifluoro-2-hydroxypropyl]-2,4-dihydro-3H-1,2,4-triazol-3-one] | 1.01 | 29.0 | 29.3
O=C1CN(C(=O)c2nc(Cn3nc(-c4ccc(Cl)cc4)n(C[C@H](O)C(F)(F)F)c3=O)nn2-c2ccccc2Cl)CCN1 [Example 31, 4-{[1-(2-Chlorophenyl)-3-({3-(4-chlorophenyl)-5-oxo-4-[(2S)-3,3,3-trifluoro-2-hydroxypropyl]-4,5-dihydro-1H-1,2,4-triazol-1-yl}methyl)-1H-1,2,4-triazol-5-yl]carbonyl}piperazin-2-one] | 5.7 | 6.0 | 34
O=C(NCC1(O)CC1)c1nc(Cn2nc(-c3ccc(Cl)cc3)n(C[C@H](O)C(F)(F)F)c2=O)nn1-c1ccccc1Cl [Example 32, 1-(2-Chlorophenyl)-3-({3-(4-chlorophenyl)-5-oxo-4-[(2S)-3,3,3-trifluoro-2-hydroxypropyl]-4,5-dihydro-1H-1,2,4-triazol-1-yl}methyl)-N-[(1-hydroxycyclopropyl)methyl]-1H-1,2,4-triazole-5-carboxamide] | 1.2 | 6.2 | 7.43
O=C(c1nc(Cn2nc(-c3ccc(Cl)cc3)n(C[C@H](O)C(F)(F)F)c2=O)nn1-c1cccc(Cl)c1)N1CCOCC1 [Example 36, 5-(4-Chlorophenyl)-2-{[1-(3-chlorophenyl)-5-(morpholin-4-ylcarbonyl)-1H-1,2,4-triazol-3-yl]methyl}-4-[(2S)-3,3,3-trifluoro-2-hydroxypropyl]-2,4-dihydro-3H-1,2,4-triazol-3-one] | 18.3 | 0.7 | 12.8
CC(C)(C)OC(=O)N1CCN(C(=O)c2nc(Cn3nc(-c4ccc(Cl)cc4)n(C[C@H](O)C(F)(F)F)c3=O)nn2-c2cccc(F)c2)CC1 [Example 40, tert-Butyl 4-{[3-({3-(4-chlorophenyl)-5-oxo-4-[(2S)-3,3,3-trifluoro-2-hydroxypropyl]-4,5-dihydro-1H-1,2,4-triazol-1-yl}methyl)-1-(3-fluorophenyl)-1H-1,2,4-triazol-5-yl]carbonyl}piperazine-1-carboxylate] | 131 | 0.8 | 98.7
O=C(c1nc(Cn2nc(-c3ccc(Cl)cc3)n(C[C@H](O)C(F)(F)F)c2=O)nn1-c1cccc(F)c1)N1CCNCC1 [Example 41, 5-(4-Chlorophenyl)-2-{[1-(3-fluorophenyl)-5-(piperazin-1-ylcarbonyl)-1H-1,2,4-triazol-3-yl]methyl}-4-[(2S)-3,3,3-trifluoro-2-hydroxypropyl]-2,4-dihydro-3H-1,2,4-triazol-3-one trifluoroacetate] | 19.3 | 7.4 | 141
